Ends that are not written are not given here.

For assay [1], the system named is normal human epidermal keratinocytes (NHEK). The assay is described as follows: Cell adhesion to Ln2-LG3-P2-coated plates, NHEK. The note with it: NHEK at passage 2, 62.5 μg/mL, 1 h. The assay is classed as cell-based. The method, then:
Normal human epidermal keratinocytes (NHEK) isolated from epidermal tissue of normal human epidermal skin were cultured in keratinocyte growth medium (KGM, manufactured by Clonetics, San Diego, Calif.). Cells at passage 2 were used for the following experiments.

The subject of assay [2] is normal human dermal fibroblasts (NHDF). The assay is described as follows: Cell adhesion to Ln2-LG3-P2-coated plates, NHDF. The assay is classed as cell-based. As to conditions: NHDF at passage 4, 62.5 μg/mL, 1 h. The procedure:
Normal human dermal fibroblasts (NHDF) isolated from hypodermal tissue of normal human skin were cultured in DMEM containing antibiotics and 10% FBS. Cells at passage 4 were used for the following experiments.

Assay [3] deals with PC12 cells. The assay is described as follows: Inhibition of cell migration to rLG3 by peptide pretreatment. As to conditions: PC12 cells pretreated with 500 μg/mL peptide, transwell coated with rLG3 25 μg/mL, 24 h. The format is cell-based, rat. The procedure:
(§1) PC12 cells were pretreated with 500 μg/mL of Ln2-LG3-P1, Ln2-LG3-P2, Ln2-LG3-P3, Ln2-LG3-P4, Ln2-LG3-P5 and SP (scramble peptide) (SEQ ID NO:20) for 10 min at room temperature and then cultured on plates coated with rLG3 (25 μg/mL) in serum-free medium. To observe cell adhesion, PC12 cells were incubated on the coated plates for 1 h and to observe cell spreading, PC12 cells were incubated on the coated plates for 3 h. To observe cell migration, cells were seed into the upper chamber of transwell filters coated with rLG3 (25 μg/mL) and cultured for 24 h. Cell migration was quantified by counting the number of cells that had migrated through the filter.

In a further assay the target is T1, integrin β1 (Rattus norvegicus, UniProt P49134).
T1 construct: whether PKCα and -δ exist as associated complexes in PC12 cells seeded on laminin-, rLG3-, and Ln2-LG3-P2-coated dishes; endogenous in cells; host or cells: PC12 cells
T1 sequence (P49134 21-799): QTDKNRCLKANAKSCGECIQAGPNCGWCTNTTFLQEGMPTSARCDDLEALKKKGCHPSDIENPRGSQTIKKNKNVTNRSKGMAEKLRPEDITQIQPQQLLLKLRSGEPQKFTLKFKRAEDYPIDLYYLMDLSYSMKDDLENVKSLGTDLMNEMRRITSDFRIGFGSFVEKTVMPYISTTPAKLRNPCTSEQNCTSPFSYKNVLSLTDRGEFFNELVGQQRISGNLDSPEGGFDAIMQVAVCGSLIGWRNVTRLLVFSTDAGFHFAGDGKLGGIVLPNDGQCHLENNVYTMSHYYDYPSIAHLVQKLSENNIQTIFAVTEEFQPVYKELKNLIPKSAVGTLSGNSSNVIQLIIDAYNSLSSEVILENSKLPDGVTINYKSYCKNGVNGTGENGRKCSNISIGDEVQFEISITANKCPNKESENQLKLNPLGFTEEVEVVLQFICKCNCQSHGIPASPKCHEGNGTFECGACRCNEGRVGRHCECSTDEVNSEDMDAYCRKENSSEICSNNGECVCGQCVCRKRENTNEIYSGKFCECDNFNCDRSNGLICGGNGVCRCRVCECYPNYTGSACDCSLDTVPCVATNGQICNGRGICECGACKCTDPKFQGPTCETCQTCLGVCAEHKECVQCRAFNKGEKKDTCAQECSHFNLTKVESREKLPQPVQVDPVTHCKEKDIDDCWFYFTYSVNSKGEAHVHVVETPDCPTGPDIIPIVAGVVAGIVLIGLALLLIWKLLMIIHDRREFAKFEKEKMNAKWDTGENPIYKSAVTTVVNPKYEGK
The assay is described as follows: Immunoprecipitation of PKCα, PKCδ and FAK with His6-rLG3 or integrin β1. The assay is classed as cell-based. As to conditions: PC12 cells on coated dishes, 30 min. The procedure: Specifically, for immunoprecipitation, PC12 cells were starved for 12 h with RPMI 1640 medium containing 0.1% FBS. Cells were detached and resuspended in serum-free medium with 0.1% BSA. PC12 cells (4×10^6 cells/100-mm dish) were seeded on laminin (5 μg/mL)-, rLG3 (25 μg/mL)-, or Ln2-LG3-P2 (25 μg/well)-coated dishes and allowed to attach for 30 min at 37° C. After incubation, cells were washed with ice-cold PBS, lysed with RIPA buffer containing a protease inhibitor cocktail. The lysates were centrifuged and the supernatants were preincubated with 50 μL of immobilized protein G beads (Upstate Biotechnology Inc.) for 1 h at 4° C. to remove nonspecific binding. The supernatants were incubated with anti-His6 (Roche, Mannheim, Germany), anti-integrin (Santa Cruz Biotechnology), or anti-PKCδ (Santa Cruz Biotechnology) antibodies for 2 h at 4° C. The immunocomplexes were precipitated with immobilized protein G beads for 12 h at 4° C. After centrifugation, beads carrying the immune complexes were washed four times with RIPA buffer. Immunoprecipitates were resuspended in SDS sample buffer, boiled for 5 min, and analysed by Western blotting.

The subject of a further assay is Schwann cells. The assay is described as follows: Schwann cell adhesion on coated plates. The assay is classed as cell-based, human. The note with it: plates coated with 62.5 μg/mL peptide, 1 h, serum-free.
Assay [4] deals with PC12 cells. The assay is described as follows: Summary of cell adhesion, spreading, migration and neurite outgrowth promotive effects. The assay is classed as cell-based, rat. The note with it: summary statement of the description. The method, then: To measure cell adhesion, spreading, migration, and neurite outgrowth promotive activities of PC12 cells using the prepared synthetic peptides that are N- and C-terminal truncated or C-terminal added peptides of the Ln2-LG3-P2 peptide, peptides described in Table 1 were coated onto plates at 62.5 μg/mL and PC12 cells were seeded thereon.

Assay [5] concerns PC12 cells. The assay is described as follows: Inhibition of cell spreading on rLG3 by peptide pretreatment. The note with it: PC12 cells pretreated with 500 μg/mL peptide, rLG3 25 μg/mL, 3 h. The assay is classed as cell-based, rat. The procedure:
as §1

For the next assay, the system named is NIH/3T3 cells. The assay is described as follows: Cell adhesion to Ln2-LG3-P2-coated plates, NIH/3T3. The assay is classed as cell-based, mouse. As to conditions: 62.5 μg/mL, 1 h. An excerpt: The mouse embryo fibroblast cell line NIH/3T3 was purchased from the American Type Culture Collection (Manassas, Va.) and cultured in Dulbecco's modified Eagle's medium (DMEM) containing 10% FBS.

In the next assay the test system is CV-1 cells. The assay is described as follows: Cell adhesion to Ln2-LG3-P2-coated plates, CV-1. The format is cell-based, African green monkey. The note with it: 62.5 μg/mL, 1 h. An excerpt: The normal African green monkey kidney fibroblast cell line CV-1 was purchased from the American Type Culture Collection (Manassas, Va.) and cultured in DMEM containing 10% FBS.

A further assay has as its system FAK Tyr-397. The assay is described as follows: FAK phosphorylation by western blotting. The assay is classed as cell-based, rat. The note with it: PC12 cells on coated dishes; 15, 30, 60 min. The method, then: For measuring FAK phosphorylation, specifically, PC12 cells were starved for 12 h by replacing RPMI 1640 medium with 0.1% FBS. PC12 cells (2×10^6 cells) were plated on 60-mm dishes precoated with laminin (5 μg/mL), rLG3 (25 μg/mL), or Ln2-LG3-P2 (25 μg/well), and allowed to adhere for the indicated times (15 min, 30 min, and 60 min). Cells were washed with ice-cold PBS and lysed with 200 μL of RIPA buffer (50 mM Tris-HCl, pH 7.4, 150 mM NaCl, 1 mM EDTA 1% Triton X-100, 1 mM PMSF, 2 mM Na3VO4, 1 mM glycerol phosphate) containing a protease inhibitor cocktail. RIPA lysates were denatured using SDS sample buffer (50 mM Tris/HCl, pH 6.8, 2% SDS, 10% glycerol, 0.1% bromophenol blue, 50 mM dithiothreitol) and analysed by SDS-PAGE. The separated proteins were electroblotted onto an Immobilon-P membrane (Millipore, Bedford, Mass.) and probed with primary antibodies to FAK Tyr-397 (Biosource, Camarillo, Calif.), FAK (Upstate Biotechnology Inc., Lake Placid, N.Y.). All blots were then detected with HRP-conjugated secondary antibodies (Cell Signaling). Signals were detected by ECL (iNtRON Biotechnology, Korea).
Background: A western blot detects proteins with antibodies after separation by electrophoresis.

The test system of assay [6] is normal human oral keratinocytes (NHOK). The assay is described as follows: Cell adhesion to Ln2-LG3-P2-coated plates, NHOK. The format is cell-based. As to conditions: NHOK at passage 2, 62.5 μg/mL, 1 h. The method, then: Normal human oral keratinocytes (NHOK) isolated from epidermal tissue of human gingiva were cultured in KGM (by Clonetics, San Diego, Calif.). Cells at passage 2 were used for the following experiments.

For assay [7], the system named is PC12 cells. The assay is described as follows: Inhibition of cell adhesion to laminin by rLG3 / rLG3-M1 pretreatment. The format is cell-based, rat. As to conditions: laminin 5 μg/mL. The procedure:
In addition, PC12 cells were pretreated with rLG3 (250 or 500 μg/mL) or vehicle (phosphate buffer, pH 3.0) for 30 min and then seeded on plates coated with laminin (5 μg/mL) for 30 min in serum-free medium and cell adhesion was observed.

For the molecule “RNIPPFEGCIWN (RNIPPFEGCIWN-NH2; listed as Homo sapiens) [Ln2-LG3-P2, 12-mer peptide, position 2675 to 2686 in human laminin α2 chain]”, the cell adhesion activity entry (in assay [1]; in assay [2]; with NIH/3T3 cells; with CV-1 cells; in assay [6]) was “strong cell adhesion activity” each time. For the same molecule, the “inhibition of cell migration to rLG3 protein” value in the assay on PC12 cells [3] was “inhibited cell spreading and migration”. Further, the “proteins in integrin β1 immunoprecipitates” value in the assay with integrin β1 was “PKCα, PKCδ, and FAK were also observed”. In addition, the Schwann cell adhesion entry in the assay with Schwann cells is given as “strong effect”. In addition, the “cell adhesion, spreading, migration, and neurite outgrowth promotive effects” value in the assay on PC12 cells [4] is “occurred the most actively”. The “inhibition of cell spreading to rLG3 protein” value in the assay with PC12 cells [5] is “inhibited cell spreading and migration”. For the same molecule, in the assay on FAK Tyr-397, the “time at which FAK phosphorylation levels at Tyr-397 peaked” value (shortened to “time at which FAK phosphorylation levels”) came to 15 min.

Turning to laminin [reference compound], the “proteins in integrin β1 immunoprecipitates” value at integrin β1 is “PKCα, PKCδ, and FAK were also observed”. Further, in the assay with FAK Tyr-397, the “time at which FAK phosphorylation levels” value stood at 15 min.

B1: rLG3: recombinant His6-tagged human laminin α2 chain LG3 domain, amino acids 2537 to 2745 (protein, listed as Homo sapiens)
chain: VELSPVPIDVGTEINLSFSTKNESGIILLGSGGTPAPPRRKRRQTGQAYYVILLNRGRLEVHLSTGARTMRKIVIRPEPNLFHDGREHSVHVERTRGIFTVQVDENRRYMQNLTVEQPIEVKKLFVGGAPPEFQPSPLRNIPPFEGCIWNLVINSVPMDFARPVSFKNADIGRCAHQKLREDEDGAAPAEIVIQPEPVPTPAFPTPTPV
modifications: His6 tag
For B1, in the assay with integrin β1, the “proteins in anti-His6 immunoprecipitates” value was “PKCα, PKCδ, and FAK were observed”; the “proteins in integrin β1 immunoprecipitates” value was “PKCα, PKCδ, and FAK were also observed”. Besides, the “inhibition of cell adhesion to laminin” value in the assay with PC12 cells [7] (PC12 cells pretreated with 250 μg/mL for 30 min) amounted to 23%. Moreover, in the assay with PC12 cells [7] (PC12 cells pretreated with 500 μg/mL for 30 min), the “inhibition of cell adhesion to laminin” value is listed as 48%. Besides, the “time at which FAK phosphorylation levels” value in the assay on FAK Tyr-397 was 15 min.
